From patent US20240408008A1, “AN IN-SITU GELLING ENEMA OF RIFAMYCIN FOR TREATING POUCHITIS AND DISTAL ULCERATIVE COLITIS” (COSMO TECHNOLOGIES LTD., priority 2021, published 2024) come the findings set out here.

The test system of one experiment is DSS induced colitis. As to the kind of experiment: Acute colitis induced by Dextran Sulfate Sodium (DSS). In kind it is in vivo. To be noted: mice, DSS 2%, PO 100 mg/Kg. How it is done:
In situ gel enema formulation batch 7663 (same formulation as batch 7639) in vivo efficacy was tested in a murine model of acute colitis induced by Dextran Sulfate Sodium (DSS). This animal model is perhaps the most widely used mouse model of colitis and employs DSS, a chemical colitogen with anticoagulant properties, to induce disease which closely resembles human UC. DSS induced intestinal inflammation results in damage to the epithelial monolayer lining the large intestine allowing the dissemination of proinflammatory intestinal contents (e.g. bacteria and their products) into underlying tissue.
For this study, a group of mice was treated by enema with Batch 7663 (indicated as CB0125 in the figures) (dose 45 mg/kg), one group was treated by enema with Placebo Batch 7679 as a comparator for 7663; a group was treated by enema with Rifamycin powder dissolved in water (67 mg/kg). One group of mice was treated orally PO with 5-ASA at the dose of 100 mg/Kg; this group was introduced as positive control. 5-ASA is the golden standard therapy for inflammatory bowel diseases, including UC, distal UC and proctitis. One group was treated by enema with the vehicle (H2O) only, as negative control.
Briefly DSS (2%) was dissolved in water (w/v) and given to mice in place of normal drinking water. DSS water was provided ad libitum for 5 days and was changed daily. This period was followed by a washout period of 5 days with water only. Mice were weighed daily and monitored for clinical status including hunching, mobility, soft stool and/or diarrhoea. At end of the study mice were sacrificed by CO2 inhalation. Immediately after euthanasia, the animals were laparatomyzed and intestine was exteriorized. The entire colon was isolated from the caecum to the anus, placed unstretched on a ruler and then measured and weighed after rinsing the lumen with saline. The weight was normalized to the colon length by calculating the ratio.
For histological analysis of colon samples, about 2 cm of the middle portion of isolated colon was fixed in a 10% formalin. Each fixed fragment was embedded in paraffin. The slides were stained with haematoxylin and eosin and assessed according to the histological score.

The next experiment concerns mTOR pathway. Description: Inhibition of mTOR and S6R phosphorylation in primary colonic epithelial cells, flow cytometry. In kind it is cell-based, human. As to conditions: Homo sapiens, Epithelial cell; serum stimulated primary colonic epithelial cells, 48 hr; read-out: IC50, % cells positive for anti-pmTOR and anti-pS6R relative to DMSO. How it is done: To evaluate Rifamycin activity on the mTOR pathway, primary colonic epithelial cells were serum starved for 24 hr and restimulated with serum for 48 hr to induce phosphorylation of mTOR and its downstream target protein […]. Serum stimulated cells were treated with Rifamycin SV, Rifaximin, the positive control Rapamycin, or the negative vehicle control DMSO. Cells were fixed, stained with antibodies against pmTOR and pS6R then analyzed by flow cytometry.

Take `Nc1ccc(O)c(C(=O)O)c1` [Batch 5-ASA, 5-aminosalycilic acid]: the histological score result in the experiment with DSS induced colitis (compared to 7663) is listed as “lower improvement”. In addition, the “clinical score AUC” value in the experiment with DSS induced colitis (compared to batch 7663) is on record as “lower efficacy”.

What is called IC50 is the midpoint of a concentration-inhibition curve. With `CO[C@H]1C[C@@H]2CC[C@@H](C)[C@@](O)(O2)C(=O)C(=O)N2CCCC[C@H]2C(=O)O[C@H]([C@H](C)C[C@@H]2CC[C@@H](O)[C@H](OC)C2)CC(=O)[C@H](C)/C=C(\C)[C@@H](O)[C@@H](OC)C(=O)[C@H](C)C[C@H](C)/C=C/C=C/C=C/1C` [Rapamycin], the IC50 in the experiment on mTOR pathway came to 0.53 µM.

As to `CO[C@H]1/C=C/O[C@@]2(C)Oc3c(C)c(O)c4c(O)c(c5c(nc6cc(C)ccn65)c4c3C2=O)NC(=O)/C(C)=C\C=C\[C@H](C)[C@H](O)[C@@H](C)[C@@H](O)[C@@H](C)[C@H](OC(C)=O)[C@@H]1C` [Rifaximin], in the experiment with mTOR pathway, the half-maximal inhibitory concentration (IC50) was 43 µM.
